Test [1] has as its target T1, F508delCFTR in primary hBE cells with F508del/F508del CFTR mutation (Homo sapiens, UniProt P13569, DEL508-508).
T1 construct: cells isolated from CF patients with the homozygous mutation; endogenous in cells; host or cells: primary human bronchial epithelial (hBE) cells from F508del/F508del CF patients
Kind of test: Transepithelial Clamp Circuit on Human Bronchial Epithelial Cells Conductance Assay (hBE-TECC). It is filed as cell-based. The source says:
Transepithelial Clamp Circuit on Human Bronchial Epithelial Cells Conductance Assay:
A cell based assay using the primary human bronchial epithelial cells (hBE) was used as a secondary assay to test novel F508delCFTR correctors for their activity on primary hBE cells with F508del/F508del CFTR mutation. The assay used a TECC-24 (Transepithelial Clamp Circuit for 24 wells) instrument that measures the functionality of the mutated channel by measuring the equivalent short circuit current (Ieq) generated by the polarized epithelial cells. The instrument works by measuring the transepithelial potential difference (Vt) and transepithelial resistance (Rt) in an open circuit format, and the Ieq is calculated by using Ohms law (Ieq=Vt/Rt). The assay was run in a 24-well format and all 24-wells were measured at the same time point giving a higher throughput for this assay.
Primary human bronchial epithelial (hBE) cells from F508del/F508delCFTR patients were expanded from 1×10^6 to 250×10^6 cells (Neuberger T, Burton B, Clark H and VanGoor F; Cystic Fibrosis, Methods in Mole Biol 741; eds. Amaral M D and Kunzelmann K, 2011). For this purpose, cells isolated from CF patients with the homozygous mutation were seeded onto 24 well Corning (Cat #3378) filter plates that were coated with 3T3 conditioned media and grown at an air-liquid interface for 35 days using an Ultroser® G supplemented differentiation media. Apical surface mucus was removed 72 hours before the experiment using 3 mM dithiothreitol (DTT) in phosphate buffered saline (PBS). The apical surface was washed again 24 hours before the experiment using PBS. The cells were incubated with the desired dose response of the corrector compounds 18-24 hours at 37° C., 5% CO2. The corrector compounds are only added on the basolateral side of the epithelial cells.
On the day of measuring the corrector activity on the TECC, the cells were switched into a bicarbonate and serum free F-12 Coon's medium and allowed to equilibrate for 90 minutes in a CO2 free incubator. At the time of measurement, the apical and basolateral sides of the filter were bathed with the F-12 Coon's modification media (with 20 mM 4-(2-hydroxyethyl)-1-piperazineethanesulfonic acid (HEPES), pH 7.4 (using 1 M tris(hydroxymethyl)aminomethane (Tris)), and the measurements were made at 36.5° C. Transepithelial voltage (Vt) and transepithelial resistance (Rt) were measured using a 24 channel transepithelial current clamp (TECC-24). Current responses to the sequential addition of benzamil (apical 6 μM addition; for inhibiting epithelial ENaC channel), forskolin (apical and basolateral 10 μM addition; for activating the CFTR channel), control potentiator (N-(3-carbamoyl-5,5,7,7-tetramethyl-4,7-dihydro-5H-thieno[2,3-c]pyran-2-yl)-1H-pyrazole-5-carboxamide; apical and basolateral […] addition; for potentiating the CFTR channel) and bumetanide (basolateral 20 μM addition; for inhibiting the Na:2Cl:K co-transporter, an indirect measure of inhibiting the Cl-secretion driven by CFTR channel) were measured.
All plates contained negative controls (dimethyl sulfoxide, DMSO) which coupled with the control potentiator (N-(3-carbamoyl-5,5,7,7-tetramethyl-4,7-dihydro-5H-thieno[2,3-c]pyran-2-yl)-1H-pyrazole-5-carboxamide) sets the null response and positive controls (3 μM of 3-[(2R,4R)-4-({[1-(2,2-difluoro-1,3-benzodioxol-5-yl)cyclopropyl]carbonyl}amino)-7-methoxy-3,4-dihydro-2H-chromen-2-yl]benzoic acid) coupled with the control potentiator sets the 100% response to measure the correction of the mutated CFTR channel. The maximum percent activity is reported relative to the positive control value.
The % activity measured at each of the 6 test concentrations of the test compound was normalized to the on-plate positive control using the following formula: % activity=[[…]]*100 […]

Test [2] addresses T2, F508delCFTR cell surface expression in CFBE41o-F508delCFTR-HRP cells (Homo sapiens, UniProt P13569, DEL508-508).
T2 construct: fused on or other part: Horseradish peroxidase (HRP) reporter inserted in the fourth exofacial (extracellular) loop of CFTR; expression is doxycycline-inducible
Kind of test: Cell Surface Expression-Horse Radish Peroxidase (CSE-HRP) Assay. As to conditions: for EC50: CFBE41o-F508delCFTR-HRP cells, 18-24 hours at 33° C., 8-point curve, highest concentration 20 μM; for Maximum % activity (%): maximum at any tested concentration, normalized to on-plate positive control (3 μM). It is filed as cell-based. An outline of the steps: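 CFBE41o- cells with HRP-tagged F508delCFTR, expression induced by 0.5 μg/mL doxycycline for 72 h at 37 °C, then compound for 18-24 h at 33 °C (8-point, 3-fold, top 20 μM). Surface HRP measured by luminol luminescence; % activity normalised to 3 μM positive-control corrector; EC50 from variable-slope sigmoidal fit, three replicate plates.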

This note sets out measurements from patent US9840513B2 (AbbVie S.à.r.l., priority 2015, dated 2017).

T2 sequence (P13569 with tags, fused parts or gaps DEL508-508 limits assumed): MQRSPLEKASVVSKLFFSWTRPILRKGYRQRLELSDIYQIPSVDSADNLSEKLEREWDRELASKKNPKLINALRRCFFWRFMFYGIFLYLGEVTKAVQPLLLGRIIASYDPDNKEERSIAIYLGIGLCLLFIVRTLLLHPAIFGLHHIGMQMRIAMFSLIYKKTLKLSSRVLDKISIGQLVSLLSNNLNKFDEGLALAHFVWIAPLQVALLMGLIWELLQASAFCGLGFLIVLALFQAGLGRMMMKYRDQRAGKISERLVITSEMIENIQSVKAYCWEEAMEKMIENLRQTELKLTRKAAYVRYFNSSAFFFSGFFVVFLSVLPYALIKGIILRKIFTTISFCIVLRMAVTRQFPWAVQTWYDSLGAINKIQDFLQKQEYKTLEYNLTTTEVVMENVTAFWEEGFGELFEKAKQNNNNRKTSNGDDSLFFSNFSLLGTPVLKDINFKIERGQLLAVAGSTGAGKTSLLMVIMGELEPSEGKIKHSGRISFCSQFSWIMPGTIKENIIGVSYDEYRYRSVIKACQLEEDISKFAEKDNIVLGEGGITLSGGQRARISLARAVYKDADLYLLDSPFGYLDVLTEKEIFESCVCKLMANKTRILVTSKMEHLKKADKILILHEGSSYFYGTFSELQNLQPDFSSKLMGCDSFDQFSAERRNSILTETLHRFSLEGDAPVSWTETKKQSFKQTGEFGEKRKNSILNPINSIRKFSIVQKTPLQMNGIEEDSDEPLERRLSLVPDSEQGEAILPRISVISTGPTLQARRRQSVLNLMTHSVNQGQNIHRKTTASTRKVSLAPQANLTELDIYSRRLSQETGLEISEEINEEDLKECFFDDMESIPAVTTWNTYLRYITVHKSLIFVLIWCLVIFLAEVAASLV
T2 sequence (P13569 919-1480 limits assumed, stated change not applied): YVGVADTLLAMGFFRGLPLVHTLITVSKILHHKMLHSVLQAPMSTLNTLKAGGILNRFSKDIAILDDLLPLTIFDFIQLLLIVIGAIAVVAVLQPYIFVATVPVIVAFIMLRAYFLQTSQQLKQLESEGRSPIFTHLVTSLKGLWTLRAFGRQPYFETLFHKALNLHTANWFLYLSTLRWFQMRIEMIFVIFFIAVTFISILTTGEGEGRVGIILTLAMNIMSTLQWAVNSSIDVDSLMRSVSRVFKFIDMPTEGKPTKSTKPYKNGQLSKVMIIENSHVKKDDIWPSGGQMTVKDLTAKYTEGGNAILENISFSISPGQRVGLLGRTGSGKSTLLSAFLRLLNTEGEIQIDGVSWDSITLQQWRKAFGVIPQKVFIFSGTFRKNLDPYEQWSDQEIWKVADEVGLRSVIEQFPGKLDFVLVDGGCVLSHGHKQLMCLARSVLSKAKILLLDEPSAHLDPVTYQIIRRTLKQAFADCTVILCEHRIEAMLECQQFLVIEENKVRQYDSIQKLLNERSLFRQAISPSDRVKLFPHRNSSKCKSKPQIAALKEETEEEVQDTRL
T1 sequence (P13569 with tags, fused parts or gaps DEL508-508): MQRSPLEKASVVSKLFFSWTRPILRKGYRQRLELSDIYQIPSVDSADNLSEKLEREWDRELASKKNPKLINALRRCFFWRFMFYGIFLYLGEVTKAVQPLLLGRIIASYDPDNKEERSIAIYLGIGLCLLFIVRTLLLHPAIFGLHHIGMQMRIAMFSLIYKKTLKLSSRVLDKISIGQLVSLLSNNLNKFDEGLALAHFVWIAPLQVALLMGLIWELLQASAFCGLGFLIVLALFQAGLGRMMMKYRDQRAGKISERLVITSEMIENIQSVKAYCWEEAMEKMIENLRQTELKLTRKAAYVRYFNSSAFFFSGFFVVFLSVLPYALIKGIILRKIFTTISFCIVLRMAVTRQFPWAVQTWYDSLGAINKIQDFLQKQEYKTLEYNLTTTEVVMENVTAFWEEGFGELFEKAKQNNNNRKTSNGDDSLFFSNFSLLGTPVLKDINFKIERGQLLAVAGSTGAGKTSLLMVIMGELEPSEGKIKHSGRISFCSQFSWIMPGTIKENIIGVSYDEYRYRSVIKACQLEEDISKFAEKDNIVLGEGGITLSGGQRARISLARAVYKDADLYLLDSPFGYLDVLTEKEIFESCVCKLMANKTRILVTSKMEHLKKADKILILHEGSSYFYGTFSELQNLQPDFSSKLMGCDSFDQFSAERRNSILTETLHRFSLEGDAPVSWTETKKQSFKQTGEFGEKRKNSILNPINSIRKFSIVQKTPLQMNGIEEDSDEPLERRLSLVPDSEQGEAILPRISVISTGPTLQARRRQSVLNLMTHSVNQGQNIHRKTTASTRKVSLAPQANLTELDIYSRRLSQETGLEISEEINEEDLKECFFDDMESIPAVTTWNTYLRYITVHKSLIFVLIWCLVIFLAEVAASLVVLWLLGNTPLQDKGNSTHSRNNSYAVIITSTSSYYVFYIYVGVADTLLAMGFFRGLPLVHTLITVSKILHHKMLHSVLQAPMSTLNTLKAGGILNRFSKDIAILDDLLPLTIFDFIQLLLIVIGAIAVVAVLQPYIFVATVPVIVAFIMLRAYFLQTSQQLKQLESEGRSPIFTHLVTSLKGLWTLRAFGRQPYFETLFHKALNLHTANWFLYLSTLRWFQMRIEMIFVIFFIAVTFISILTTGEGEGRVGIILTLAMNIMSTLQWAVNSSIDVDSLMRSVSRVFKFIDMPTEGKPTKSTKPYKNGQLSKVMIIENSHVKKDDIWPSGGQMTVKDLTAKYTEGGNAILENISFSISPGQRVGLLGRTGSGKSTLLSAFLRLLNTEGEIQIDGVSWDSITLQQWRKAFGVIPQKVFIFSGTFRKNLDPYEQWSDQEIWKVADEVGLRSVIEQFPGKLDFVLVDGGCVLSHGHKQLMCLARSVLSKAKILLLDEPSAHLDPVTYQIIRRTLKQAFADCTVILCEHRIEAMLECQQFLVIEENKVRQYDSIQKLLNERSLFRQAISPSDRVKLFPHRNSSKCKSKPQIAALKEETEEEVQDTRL

As for `Cc1ccc(NC(=O)[C@]2(C)CCc3c2ccc2c3OCO2)cc1-c1cccc(C(=O)O)c1` (single isomer, unassigned) [Example 37], the EC50 in test [1] (primary hBE cells F508del/F508del, 18-24 hours at 37° C., equivalent short circuit current, 6 concentrations) came out at 0.564 µM; in test [2], 0.73 µM. Further, the “Maximum % activity (%)” value in test [1] (relative to positive control (3 μM) coupled with control potentiator) is listed as 70%; in test [2], 83%.

On to `COc1ccc2c(c1)O[C@@H](Cn1ncccc1=O)C[C@H]2NC(=O)[C@@]1(C)COc2cc3c(cc21)OC(F)(F)O3` [Example 285, (7R)-2,2-difluoro-N-{(2R,4R)-7-methoxy-2-[(6-oxopyridazin-1(6H)-yl)methyl]-3,4-dihydro-2H-1-benzopyran-4-yl}-7-methyl-6,7-dihydro-2H-furo[2,3-f][1,3]benzodioxole-7-carboxamide], for which, in test [2], the EC50 is 1.13 µM and the “Maximum % activity (%)” value is listed as 54%.

In the case of `C[C@]1(C(=O)Nc2cc3cc(C4(COCc5ccccc5)CC4)n(C[C@@H](O)COCc4ccccc4)c3cc2F)COc2cc3c(cc21)OC(F)(F)O3` [Example 286, (7R)—N-(1-[(2R)-3-(benzyloxy)-2-hydroxypropyl]-2-{1-[(benzyloxy)methyl]cyclopropyl}-6-fluoro-1H-indol-5-yl)-2,2-difluoro-7-methyl-6,7-dihydro-2H-furo[2,3-f][1,3]benzodioxole-7-carboxamide], in test [2], the EC50 was 0.21 µM and the “Maximum % activity (%)” value was determined as 120%.

`CCOC(=O)C1(CN)CCC([C@H]2C[C@@H](NC(=O)[C@@]3(C)COc4cc5c(cc43)OC(F)(F)O5)c3ccc(OC(F)(F)F)cc3O2)CC1` (stereo partly drawn) [Example 287, ethyl 1-(aminomethyl)-4-[(2R,4R)-4-{[(7R)-2,2-difluoro-7-methyl-6,7-dihydro-2H-furo[2,3-f][1,3]benzodioxole-7-carbonyl]amino}-7-(trifluoromethoxy)-3,4-dihydro-2H-1-benzopyran-2-yl]cyclohexane-1-carboxylate]: in test [2], the half-maximal effective concentration (EC50) was found to be 0.64 µM and the “Maximum % activity (%)” value is 199%.

Consider `C[C@]1(C(=O)N[C@@H]2C[C@H](C3CCC(CO)(C(=O)O)CC3)Oc3cc(OC(F)(F)F)ccc32)COc2cc3c(cc21)OC(F)(F)O3` (stereo partly drawn) [Example 288, 4-[(2R,4R)-4-{[(7R)-2,2-difluoro-7-methyl-6,7-dihydro-2H-furo[2,3-f][1,3]benzodioxole-7-carbonyl]amino}-7-(trifluoromethoxy)-3,4-dihydro-2H-1-benzopyran-2-yl]-1-(hydroxymethyl)cyclohexane-1-carboxylic acid], for which, in test [2], a half-maximal effect (EC50) was put at 0.29 µM and the “Maximum % activity (%)” value is reported as 138%.

Take `C[C@]1(C(=O)N[C@@H]2C[C@H](C3CCC(CN)(C(=O)O)CC3)Oc3cc(OC(F)(F)F)ccc32)COc2cc3c(cc21)OC(F)(F)O3` (stereo partly drawn) [Example 289, 1-(aminomethyl)-4-[(2R,4R)-4-{[(7R)-2,2-difluoro-7-methyl-6,7-dihydro-2H-furo[2,3-f][1,3]benzodioxole-7-carbonyl]amino}-7-(trifluoromethoxy)-3,4-dihydro-2H-1-benzopyran-2-yl]cyclohexane-1-carboxylic acid]: in test [2], it took 0.64 µM to reach a half-maximal effect (EC50) and the “Maximum % activity (%)” value was 140%.

For the molecule `COc1cc2c(cc1Br)[C@H](NC(=O)[C@@]1(C)COc3cc4c(cc31)OC(F)(F)O4)C[C@H]([C@H]1CC[C@H](C(=O)O)CC1)O2` [Example 290, trans-4-[(2R,4R)-6-bromo-4-{[(7R)-2,2-difluoro-7-methyl-6,7-dihydro-2H-furo[2,3-f][1,3]benzodioxole-7-carbonyl]amino}-7-methoxy-3,4-dihydro-2H-1-benzopyran-2-yl]cyclohexane-1-carboxylic acid], in test [2], the EC50 was found to be 0.53 µM and the “Maximum % activity (%)” value is recorded as 189%.

For `COc1ccc2c(c1)O[C@@H]([C@H]1CC[C@H](C(=O)O)CC1)C[C@H]2NC(=O)[C@@]1(C)COc2c1cc1c(c2I)OC(F)(F)O1` [Example 291, trans-4-[(2R,4R)-4-{[(7R)-2,2-difluoro-4-iodo-7-methyl-6,7-dihydro-2H-furo[2,3-f][1,3]benzodioxole-7-carbonyl]amino}-7-methoxy-3,4-dihydro-2H-1-benzopyran-2-yl]cyclohexane-1-carboxylic acid], in test [2], the EC50 stood at 0.67 µM and the “Maximum % activity (%)” value is 117%.

Take `COc1ccc2c(c1)O[C@@H](C1CCC(C(=O)O)CC1)C[C@H]2NC(=O)[C@]1(C)COc2cc3c(cc21)OC(F)(F)O3` (stereo partly drawn) [Example 292, 4-[(2R,4R)-4-{[(7S)-2,2-difluoro-7-methyl-6,7-dihydro-2H-furo[2,3-f][1,3]benzodioxole-7-carbonyl]amino}-7-methoxy-3,4-dihydro-2H-1-benzopyran-2-yl]cyclohexane-1-carboxylic acid]: in test [2], the midpoint of the response, the EC50, lay at 7.54 µM and the “Maximum % activity (%)” value turned out to be 99%.

In the case of `COc1ccc2c(c1)O[C@H](C1CCC(C(=O)O)CC1)C[C@@H]2NC(=O)[C@]1(C)COc2cc3c(cc21)OC(F)(F)O3` (stereo partly drawn) [Example 293, 4-[(2S,4S)-4-{[(7S)-2,2-difluoro-7-methyl-6,7-dihydro-2H-furo[2,3-f][1,3]benzodioxole-7-carbonyl]amino}-7-methoxy-3,4-dihydro-2H-1-benzopyran-2-yl]cyclohexane-1-carboxylic acid], in test [2], the half-maximal effective concentration (EC50) came to 1.63 µM and the “Maximum % activity (%)” value is reported as 115%.

Take “(7R)—N-(6-{[2R)-2,3-dihydroxypropyl]amino}pyridin-2-yl)-2,2-difluoro-7-methyl-6,7-dihydro-2H-furo[2,3-f][1,3]benzodioxole-7-carboxamide [Example 92]”: in test [2], the EC50 came to 1.72 µM and the “Maximum % activity (%)” value was 98%.

For “(7R)—N-[5-(3R,4R)-dihydroxypyrrolidin-1-yl)pyrazin-2-yl]-2,2-difluoro-7-methyl-6,7-dihydro-2H-furo[2,3-f][1,3]benzodioxole-7-carboxamide and (7R)—N-[5-(3S,4S)-dihydroxypyrrolidin-1-yl)pyrazin-2-yl]-2,2-difluoro-7-methyl-6,7-dihydro-2H-furo[2,3-f][1,3]benzodioxole-7-carboxamide [Example 121]”, in test [2], the EC50 came out at 11.1 µM and the “Maximum % activity (%)” value was found to be 23%.

For “(7R)—N-[6-(3-benzylpyrrolidin-1-yl)pyridin-2-yl]-2,2-difluoro-7-methyl-6,7-dihydro-2H-furo[2,3-f][1,3]benzodioxole-7-carboxamide [Example 113]”, in test [2], the EC50 came to 1.11 µM and the “Maximum % activity (%)” value was determined as 83%.

Turning to “methyl 4-[(2R,4S,6S)-4-{[(7R)-2,2-difluoro-7-methyl-6,7-dihydro-2H-furo[2,3-f][1,3]benzodioxole-7-carbonyl]amino}-6-phenyloxan-2-yl]benzoate and methyl 4-[(2S,4R,6R)-4-{[(7R)-2,2-difluoro-7-methyl-6,7-dihydro-2H-furo[2,3-f][1,3]benzodioxole-7-carbonyl]amino}-6-phenyloxan-2-yl]benzoate [Example 33]”, in test [2], a half-maximal effect (EC50) was put at 1.18 µM and the “Maximum % activity (%)” value worked out at 131%.
